Activity calls are given as the source filed them. No cut-off for these calls is given here.
What was measured:
Escherichia coli [1] = assay: Antibacterial activity against Escherichia coli ATCC 25922 assessed as bacterial growth inhibition incubated for 16 hrs in presence of Muller-Hinton medium by broth microdilution method; assay type: functional, organism-based
Enterococcus faecalis = assay: Antibacterial activity against Enterococcus faecalis ATCC 33186 assessed as bacterial growth inhibition incubated for 16 hrs in presence of brain heart infusion medium by broth microdilution method; assay type: functional, organism-based
[2] = target: T1, Polyunsaturated fatty acid 5-lipoxygenase (Homo sapiens) (UniProt P09917); assay: Inhibition of human 5-LO at 2 uM incubated for 15 mins in presence of ATP by measuring fluorescence intensity relative to control
T1 sequence (whole entry): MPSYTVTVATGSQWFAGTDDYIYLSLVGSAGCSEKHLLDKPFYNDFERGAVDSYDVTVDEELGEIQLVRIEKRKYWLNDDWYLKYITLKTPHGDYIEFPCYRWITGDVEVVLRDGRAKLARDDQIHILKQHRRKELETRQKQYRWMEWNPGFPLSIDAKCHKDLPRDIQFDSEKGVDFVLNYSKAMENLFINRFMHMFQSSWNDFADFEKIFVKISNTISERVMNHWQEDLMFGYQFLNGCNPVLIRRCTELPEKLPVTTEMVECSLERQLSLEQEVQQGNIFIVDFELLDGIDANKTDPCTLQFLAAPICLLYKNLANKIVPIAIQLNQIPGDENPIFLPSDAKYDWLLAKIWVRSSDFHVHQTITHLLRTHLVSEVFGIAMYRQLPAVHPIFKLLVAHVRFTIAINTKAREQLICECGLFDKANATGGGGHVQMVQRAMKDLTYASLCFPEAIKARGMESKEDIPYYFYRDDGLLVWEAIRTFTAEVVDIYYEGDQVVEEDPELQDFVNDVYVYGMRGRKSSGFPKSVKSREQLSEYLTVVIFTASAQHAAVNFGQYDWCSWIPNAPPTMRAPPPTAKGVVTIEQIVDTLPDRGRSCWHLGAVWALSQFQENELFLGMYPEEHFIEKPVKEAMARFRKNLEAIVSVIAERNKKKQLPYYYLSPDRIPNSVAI

LX-2 [3] = assay: Cytotoxicity against human LX-2 cells assessed as reduction in cell viability at 200 uM incubated for 24 hrs by CCK-8 assay; assay type: toxicity, cell-based; conditions: lx-2, 24 h
Acinetobacter baumannii [4] = assay: Antibacterial activity against Acinetobacter baumannii ATCC 19606 assessed as bacterial growth inhibition incubated for 16 hrs in presence of Muller-Hinton medium by broth microdilution method; assay type: functional, organism-based
NIH3T3 [5] = assay: Antifibrotic activity against TGFbeta-1 induced mouse NIH3T3 cells assessed as decrease in COL1A1 mRNA expression at 1 uM incubated for 24 hrs by qRT-PCR analysis relative to control; assay type: functional; set-up: scale not given: the % may be the effect or the level left
Klebsiella pneumoniae [6] = assay: Antibacterial activity against Klebsiella pneumoniae ATCC 10031 assessed as bacterial growth inhibition incubated for 16 hrs in presence of Muller-Hinton medium by broth microdilution method; assay type: functional, organism-based
NIH3T3 [7] = assay: Antifibrotic activity against TGFbeta-1 induced mouse NIH3T3 cells assessed as decrease in Acta2 mRNA expression at 5 uM incubated for 24 hrs by qRT-PCR analysis relative to control; assay type: functional; set-up: scale not given: the % may be the effect or the level left
NIH3T3 [8] = assay: Antifibrotic activity against TGFbeta-1 induced mouse NIH3T3 cells assessed as decrease in Acta2 mRNA expression at 1 uM incubated for 24 hrs by qRT-PCR analysis relative to control; assay type: functional; set-up: scale not given: the % may be the effect or the level left
LX-2 [9] = assay: Antifibrotic activity against TGFbeta-1 induced human LX-2 cells assessed as inhibition of COL1A1 mRNA expression at 5 uM incubated for 24 hrs by qRT-PCR analysis relative to control; assay type: functional; set-up: scale not given: the % may be the effect or the level left
Bacillus subtilis = assay: Antibacterial activity against Bacillus subtilis CPCC 100029 assessed as bacterial growth inhibition incubated for 16 hrs in presence of Muller-Hinton medium by broth microdilution method; assay type: functional, organism-based
Pseudomonas aeruginosa [10] = assay: Antibacterial activity against Pseudomonas aeruginosa ATCC 27853 assessed as bacterial growth inhibition incubated for 16 hrs in presence of Muller-Hinton medium by broth microdilution method; assay type: functional, organism-based
Staphylococcus aureus [11] = assay: Antibacterial activity against Staphylococcus aureus ATCC 29213 assessed as bacterial growth inhibition incubated for 16 hrs in presence of Muller-Hinton medium by broth microdilution method; assay type: functional, organism-based
LX-2 [12] = assay: Antifibrotic activity against TGFbeta-1 induced human LX-2 cells assessed as inhibition of ACTA2 mRNA expression at 5 uM incubated for 24 hrs by qRT-PCR analysis relative to control; assay type: functional; set-up: scale not given: the % may be the effect or the level left
Acinetobacter baumannii [13] = assay: Antibacterial activity against Acinetobacter baumannii 2799 assessed as bacterial growth inhibition incubated for 16 hrs in presence of Muller-Hinton medium by broth microdilution method; assay type: functional, organism-based
Escherichia coli [14] = assay: Antibacterial activity against Escherichia coli ATCC 35218 assessed as bacterial growth inhibition incubated for 16 hrs in presence of Muller-Hinton medium by broth microdilution method; assay type: functional, organism-based
NIH3T3 [15] = assay: Antifibrotic activity against TGFbeta-1 induced mouse NIH3T3 cells assessed as decrease in COL1A1 mRNA expression at 5 uM incubated for 24 hrs by qRT-PCR analysis relative to control; assay type: functional; set-up: scale not given: the % may be the effect or the level left
LX-2 [16] = assay: Antifibrotic activity against TGFbeta-1 induced human LX-2 cells assessed as inhibition of TGFB1 mRNA expression at 1 uM incubated for 24 hrs by qRT-PCR analysis relative to control; assay type: functional; set-up: scale not given: the % may be the effect or the level left
Klebsiella pneumoniae [17] = assay: Antibacterial activity against Klebsiella pneumoniae ATCC 700603 assessed as bacterial growth inhibition incubated for 16 hrs in presence of Muller-Hinton medium by broth microdilution method; assay type: functional, organism-based
Enterococcus faecium = assay: Antibacterial activity against Enterococcus faecium 310682 (VRE) assessed as bacterial growth inhibition incubated for 16 hrs in presence of brain heart infusion medium by broth microdilution method; assay type: functional, organism-based
LX-2 [18] = assay: Antifibrotic activity against TGFbeta-1 induced human LX-2 cells assessed as inhibition of TGFB1 mRNA expression at 5 uM incubated for 24 hrs by qRT-PCR analysis relative to control; assay type: functional; set-up: scale not given: the % may be the effect or the level left
Pseudomonas aeruginosa [19] = assay: Antibacterial activity against Pseudomonas aeruginosa 2774 assessed as bacterial growth inhibition incubated for 16 hrs in presence of Muller-Hinton medium by broth microdilution method; assay type: functional, organism-based
LX-2 [20] = assay: Antifibrotic activity against TGFbeta-1 induced human LX-2 cells assessed as inhibition of COL1A1 mRNA expression at 1 uM incubated for 24 hrs by qRT-PCR analysis relative to control; assay type: functional; set-up: scale not given: the % may be the effect or the level left
Staphylococcus aureus [21] = assay: Antibacterial activity against Staphylococcus aureus ATCC 33591 assessed as bacterial growth inhibition incubated for 16 hrs in presence of Muller-Hinton medium by broth microdilution method; assay type: functional, organism-based
LX-2 [22] = assay: Antifibrotic activity against TGFbeta-1 induced human LX-2 cells assessed as inhibition of ACTA2 mRNA expression at 1 uM incubated for 24 hrs by qRT-PCR analysis relative to control; assay type: functional; set-up: scale not given: the % may be the effect or the level left
LX-2 [23] = assay: Antifibrotic activity against TGFbeta-1 induced human LX-2 cells assessed as inhibition of COL1A1 mRNA expression incubated for 24 hrs by qRT-PCR analysis; assay type: functional, cell-based; conditions: dose 1-5 µM
LX-2 [24] = assay: Antifibrotic activity against TGFbeta-1 induced human LX-2 cells assessed as inhibition of ACTA2 mRNA expression incubated for 24 hrs by qRT-PCR analysis; assay type: functional, cell-based; conditions: dose 1-5 µM
LX-2 [25] = assay: Antifibrotic activity against TGFbeta-1 induced human LX-2 cells assessed as inhibition of TGFB1 mRNA expression incubated for 24 hrs by qRT-PCR analysis; assay type: functional, cell-based; conditions: dose 1-5 µM

Q: What does the source list for `O=C(Cc1ccccc1)OC[C@H](CCCCNC(=O)c1cccc(O)c1O)NC(=O)c1cccnc1`?
A: Activity (Escherichia coli [1]): inactive; Activity (Enterococcus faecalis): inactive; inhibition [2]: 66%; Activity (LX-2 [3]): Non-toxic; Activity (Acinetobacter baumannii [4]): inactive; Activity (NIH3T3 [5]): 7.6%; Activity (Klebsiella pneumoniae [6]): inactive; Activity (NIH3T3 [7]): 55%; Activity (NIH3T3 [8]): 20%; Activity (LX-2 [9]): 29%; Activity (Bacillus subtilis): inactive; Activity (Pseudomonas aeruginosa [10]): inactive; Activity (Staphylococcus aureus [11]): inactive; Activity (LX-2 [12]): 68%; Activity (Acinetobacter baumannii [13]): inactive; Activity (Escherichia coli [14]): inactive; Activity (NIH3T3 [15]): 31%; Activity (LX-2 [16]): 15%; Activity (Klebsiella pneumoniae [17]): inactive; Activity (Enterococcus faecium): inactive; Activity (LX-2 [18]): 40%; Activity (Pseudomonas aeruginosa [19]): inactive; Activity (LX-2 [20]): -3.5%; Activity (Staphylococcus aureus [21]): inactive; Activity (LX-2 [22]): 3.1%

Q: For `CCC(=O)OC[C@H](CCCCNC(=O)c1cccc(O)c1O)NC(=O)c1cccc(O)c1O`, which Activity (Escherichia coli [1]) is on record?
A: inactive

Q: What about the Activity (LX-2 [23]) of the same compound?
A: Dose-dependent-effect

Q: What about the Activity (Enterococcus faecalis) of the same compound?
A: inactive

Q: And the inhibition [2]?
A: 75%

Q: What about the Activity (LX-2 [3]) of the same compound?
A: Non-toxic

Q: And the Activity (Acinetobacter baumannii [4])?
A: inactive

Q: What about the Activity (LX-2 [24]) of the same compound?
A: Dose-dependent-effect

Q: And the Activity (LX-2 [25])?
A: Dose-dependent-effect

Q: And the Activity (NIH3T3 [5])?
A: 35%

Q: What about the Activity (Klebsiella pneumoniae [6]) of the same compound?
A: inactive

Q: What about the Activity (NIH3T3 [7]) of the same compound?
A: 117%

Q: What about the Activity (NIH3T3 [8]) of the same compound?
A: 61%

Q: And the Activity (LX-2 [9])?
A: 92%

Q: What about the Activity (Bacillus subtilis) of the same compound?
A: inactive

Q: And the Activity (Pseudomonas aeruginosa [10])?
A: inactive

Q: And the Activity (Staphylococcus aureus [11])?
A: inactive

Q: And the Activity (LX-2 [12])?
A: 139%

Q: What about the Activity (Acinetobacter baumannii [13]) of the same compound?
A: inactive

Q: And the Activity (Escherichia coli [14])?
A: inactive

Q: What about the Activity (NIH3T3 [15]) of the same compound?
A: 81%

Q: What about the Activity (LX-2 [16]) of the same compound?
A: 57%

Q: What about the Activity (Klebsiella pneumoniae [17]) of the same compound?
A: inactive

Q: What about the Activity (Enterococcus faecium) of the same compound?
A: inactive

Q: What about the Activity (LX-2 [18]) of the same compound?
A: 73%

Q: And the Activity (Pseudomonas aeruginosa [19])?
A: inactive

Q: And the Activity (LX-2 [20])?
A: 50%

Q: What about the Activity (Staphylococcus aureus [21]) of the same compound?
A: inactive

Q: What about the Activity (LX-2 [22]) of the same compound?
A: 105%

Q: Which results are given for `O=C(Cc1ccc(O)cc1)OC[C@H](CCCCNC(=O)c1cccc(O)c1O)NC(=O)c1cccc(O)c1O`?
A: Activity (Escherichia coli [1]): inactive; Activity (LX-2 [23]): Dose-dependent-effect; Activity (Enterococcus faecalis): inactive; inhibition [2]: 77%; Activity (LX-2 [3]): Non-toxic; Activity (Acinetobacter baumannii [4]): inactive; Activity (LX-2 [24]): Dose-dependent-effect; Activity (LX-2 [25]): Dose-dependent-effect; Activity (NIH3T3 [5]): 46%; Activity (Klebsiella pneumoniae [6]): inactive; Activity (NIH3T3 [7]): 119%; Activity (NIH3T3 [8]): 80%; Activity (LX-2 [9]): 81%; Activity (Bacillus subtilis): inactive; Activity (Pseudomonas aeruginosa [10]): inactive; Activity (Staphylococcus aureus [11]): inactive; Activity (LX-2 [12]): 136%; Activity (Acinetobacter baumannii [13]): inactive; Activity (Escherichia coli [14]): inactive; Activity (NIH3T3 [15]): 68%; Activity (LX-2 [16]): 50%; Activity (Klebsiella pneumoniae [17]): inactive; Activity (Enterococcus faecium): inactive; Activity (LX-2 [18]): 81%; Activity (Pseudomonas aeruginosa [19]): inactive; Activity (LX-2 [20]): 29%; Activity (Staphylococcus aureus [21]): inactive; Activity (LX-2 [22]): 61%

Q: How did the Activity (Escherichia coli [1]) turn out when `O=C(Cc1ccccc1)OC[C@H](CCCCNC(=O)c1cccc(O)c1O)NC(=O)c1cccc(O)c1O` was run?
A: inactive

Q: What about the Activity (LX-2 [23]) of the same compound?
A: Dose-dependent-effect

Q: And the Activity (Enterococcus faecalis)?
A: inactive

Q: And the inhibition [2]?
A: 72%

Q: What about the Activity (LX-2 [3]) of the same compound?
A: Non-toxic

Q: What about the Activity (Acinetobacter baumannii [4]) of the same compound?
A: inactive

Q: What about the Activity (LX-2 [24]) of the same compound?
A: Dose-dependent-effect

Q: And the Activity (LX-2 [25])?
A: Dose-dependent-effect

Q: And the Activity (NIH3T3 [5])?
A: 78%

Q: And the Activity (Klebsiella pneumoniae [6])?
A: inactive

Q: And the Activity (NIH3T3 [7])?
A: 124%

Q: What about the Activity (NIH3T3 [8]) of the same compound?
A: 94%

Q: And the Activity (LX-2 [9])?
A: 87%

Q: And the Activity (Bacillus subtilis)?
A: inactive

Q: What about the Activity (Pseudomonas aeruginosa [10]) of the same compound?
A: inactive

Q: What about the Activity (Staphylococcus aureus [11]) of the same compound?
A: inactive

Q: And the Activity (LX-2 [12])?
A: 139%

Q: And the Activity (Acinetobacter baumannii [13])?
A: inactive

Q: And the Activity (Escherichia coli [14])?
A: inactive

Q: What about the Activity (NIH3T3 [15]) of the same compound?
A: 81%

Q: And the Activity (LX-2 [16])?
A: 46%

Q: And the Activity (Klebsiella pneumoniae [17])?
A: inactive

Q: And the Activity (Enterococcus faecium)?
A: inactive

Q: What about the Activity (LX-2 [18]) of the same compound?
A: 69%

Q: And the Activity (Pseudomonas aeruginosa [19])?
A: inactive

Q: What about the Activity (LX-2 [20]) of the same compound?
A: 46%

Q: And the Activity (Staphylococcus aureus [21])?
A: inactive

Q: What about the Activity (LX-2 [22]) of the same compound?
A: 82%

Reference: ChEMBL document CHEMBL6078652, “Discovery of Sporachelins by Genome Mining of a Micromonospora Strain” (J Nat Prod, 2024)
